Results: patent US20100210467A1, “AGENT FOR IMPROVING SUGARCANE BRIX AND METHOD OF PROMOTING SUGARCANE RIPENING USING THE SAME” (Kumiai Chemical Industry Co., Ltd., priority 2007, published 2010)

Tests used:
Type in all cases: in vivo
sugarcane [1] = test: Example 2: sugar content of sugarcane stem juice after spraying from an aircraft, field test in Brazil; settings: 50 g/ha; after 30 days of spraying
Method: (§1) In accordance with “NORMAS DE AVALIAçÃO DA […] DA CANA-DE-AçÚCAR” used in Brazilian sugar refining plants as Standard for quality evaluation of sugarcane, the analysis on the sugar content in the squeezed juice of sugarcane stem was carried out for Brix value, sugar content in sugarcane (PC), and total sugar amount recoverable from sugarcane stem (ATR) as follows.
(§2) Brix was measured according to a digital refractometer. PC was calculated according to the equation (1). ATR was calculated according to the equation (5).
At the time the Brix value of sugarcane grown in a sugarcane cultivated area in Brazil (an average Brix value in the harvesttime being 21%) became 81% of the aforesaid average Brix value, a bispyribac-sodium formulation (a commercially available product, a tradename “NOMINEE 400SC”) was diluted with water so that the amount of the effective ingredient in 30 liters of the spraying liquid could be equal to the used amount shown in Table 3, and the liquid was sprayed over the test area from an air-craft at a rate of 30 liters per hectare.
In a control area, a known fluazifop formulation (a commercially available product, a tradename “[…]”) was similarly sprayed.
Next, 5 individual sugarcanes were cut from 5 locations in each area, i.e. 25 sugarcanes from each area, on the initial day of spraying and after 30 days of spraying, and thereafter the stems were squeezed and sugar was recovered from the juice to obtain the yield. The yield after 30 days of spraying was compared with the yield of the initial day of spraying and the rate of increase (%) was calculated. The analysis on the sugar content in the squeezed juice of sugarcane stems was carried out similarly as in the case of Example 1.

sugarcane [2] = test: Example 4: sugar content of sugarcane stem juice after pyribenzoxim back pack spraying, field test in Brazil
Method: as §1, §2
At the time the Brix value of sugarcane grown in a sugarcane cultivated area in Brazil (an average Brix value in the harvesttime being 20%) became 86% of the aforesaid average Brix value, a pyribenzoxim formulation (a tradename “PYANCHOR”) was diluted with water so that the amount of the effective ingredient in 105 liters of the spraying liquid could be equal to the used amount shown in Table 6, and the liquid was sprayed above the plant by the aid of a CO2-pressurized back pack sprayer to the test area at a rate of 105 liters per hectare.
(§3) In a control area, a known sulfometuron-methyl formulation (a commercially available product, a tradename “CURAVIAL”) was similarly sprayed.
(§4) Next, 20 individual sugarcanes were cut from each area on the initial day of spraying, after 15 days of spraying, after 30 days of spraying and after 45 days of spraying, and thereafter the stems were squeezed and sugar was recovered from the juice to obtain the yield. Each yield was compared with the yield of the initial day of spraying and the rate of increase (%) was calculated. The analysis on the sugar content in the squeezed juice of sugarcane stems was carried out similarly as in the case of Example 1.

sugarcane [3] = test: Example 3: sugar content of sugarcane stem juice after pyrimisulfan back pack spraying, field test in Brazil
Method: as §1, §2
At the time the Brix value of sugarcane grown in a sugarcane cultivated area in Brazil (an average Brix value in the harvesttime being 18%) became 88% of the aforesaid average Brix value, pyrimisulfan (pyrimisulfan prepared by a method disclosed in JP2000-44546A) was diluted with water so that the amount of the effective ingredient in 105 liters of the spraying liquid could be equal to the used amount shown in Table 4, and the liquid was sprayed above the plant by the aid of a CO2-pressurized back pack sprayer to the test area at a rate of 105 liters per hectare.
as §3, §4

sugarcane [4] = test: Example 1: sugar content of sugarcane stem juice after power-sprayer application, field test in Brazil; settings: 15 g/ha
Method: With respect to sugarcane grown in a sugarcane cultivated area in Brazil (an average Brix value in the harvesttime being 18%), a juice was collected from 5 middle internodes selected at random in the sugarcane stem and the Brix value was measured according to a usual method. At the time the measured Brix value became 82% of the aforementioned average Brix value, a bispyribac-sodium formulation (a commercially available product, a tradename “NOMINEE 400SC”) was diluted with water so that the amount of the effective ingredient in 74 liters of the spraying liquid could be equal to the used amount shown in Table 1. The liquid was then sprayed above the plant by the aid of a power sprayer to a test area at a rate of 74 liters per hectare.
as §3
Next, 10 individual sugarcanes were cut from each area on the initial day of spraying, after 30 days of spraying and after 45 days of spraying, and thereafter the stem was squeezed and sugar was recovered from the juice to obtain the yield. Each yield was compared with the yield of the initial day of spraying and the rate of increase (%) was calculated.
as §1, §2
S denotes a sugar content in the extracted liquid and is calculated according to the equation (2). F denotes an amount of fibers in sugarcane and is calculated according to the equation (3). C denotes a conversion coefficient from the sugar content in the extracted liquid to an absolute amount and is calculated according to the equation (4).
LAI denotes a measured value by the digital saccharimeter after clarification of the juice by a clarifying mixture made from aluminum.
PBU denotes the mass of a wet bagasse exhausted from a pressing machine in the squeezed step of sugarcane stem.
ARC denotes an amount of reducing sugar of sugarcane and is calculated from the following equation (6).
AR denotes an amount of reducing sugar in the extracted liquid and is calculated from the following equation (7).

sugarcane [5] = test: Example 5: sugar content of sugarcane stem juice after bispyribac-sodium and/or gibberellin spraying, field test in Brazil
Method: as §1, §2
At the time the Brix value of sugarcane grown in a sugarcane cultivated area in Brazil (an average Brix value in the harvesttime being 18%) became 88% of the aforesaid average Brix value, a bispyribac-sodium formulation (a commercially available product, a tradename, “NOMINEE 400SC”) and a gibberellin formulation (a commercially available product, a tradename, “PRO-GIBB”) were admixed together and diluted with water or separately diluted with water so that the amount of the effective ingredient in 105 liters of each of the spraying liquids could be equal to the used amount shown in Table 8, and each liquid was sprayed above the plant by the aid of a CO2-pressurized back pack sprayer to the test area at a rate of 105 liters per hectare.
as §3, §4

[6] = 40 g/ha, after 15 days of spraying
[7] = 40 g/ha, after 30 days of spraying
[8] = 40 g/ha, after 45 days of spraying
[9] = 15 g/ha, after 15 days of spraying
[10] = 15 g/ha, after 30 days of spraying
[11] = 15 g/ha, after 45 days of spraying
[12] = 10 g/ha, after 15 days of spraying
[13] = 10 g/ha, after 30 days of spraying
[14] = 10 g/ha, after 45 days of spraying

Q: What does the source list for `CC(Oc1ccc(Oc2ccc(C(F)(F)F)cn2)cc1)C(=O)O` (stereo not drawn) [Fluazifop, fluazifop]?
A: ATR increased rate from the initial day of spraying (sugarcane [1]): 20.2%; Brix increased rate from the initial day of spraying (sugarcane [1]): 18.1%; Concentration of soluble solid matter, Brix (sugarcane [1]): 20.5%; PC increased rate from the initial day of spraying (sugarcane [1]): 22.0%; Sugar content in sugarcane, PC (sugarcane [1]): 15.1%; Total sugar amount recoverable from 1 kg of stem, ATR (sugarcane [1]): 146.0 g

Q: Which results are given for `COc1cc(OC)nc(Oc2cccc(Oc3nc(OC)cc(OC)n3)c2C(=O)ON=C(c2ccccc2)c2ccccc2)n1` [Pyribenzoxim, pyribenzoxim]?
A: ATR increased rate from the initial day of spraying (sugarcane [2]; [6]): 14.2%; Brix increased rate from the initial day of spraying (sugarcane [2]; [6]): 10.9%; Concentration of soluble solid matter, Brix (sugarcane [2]; [6]): 17.8%; Total sugar amount recoverable from 1 kg of stem, ATR (sugarcane [2]; [6]): 128.1 g; ATR increased rate from the initial day of spraying (sugarcane [2]; [7]): 10.2%; Brix increased rate from the initial day of spraying (sugarcane [2]; [7]): 9.1%; Concentration of soluble solid matter, Brix (sugarcane [2]; [7]): 17.5%; Total sugar amount recoverable from 1 kg of stem, ATR (sugarcane [2]; [7]): 123.6 g; ATR increased rate from the initial day of spraying (sugarcane [2]; [8]): 22.0%; Brix increased rate from the initial day of spraying (sugarcane [2]; [8]): 19.7%; Concentration of soluble solid matter, Brix (sugarcane [2]; [8]): 19.2%; Total sugar amount recoverable from 1 kg of stem, ATR (sugarcane [2]; [8]): 136.8 g

Q: What does the source list for `COCc1cccc(C(O)c2nc(OC)cc(OC)n2)c1NS(=O)(=O)C(F)F` (stereo not drawn) [Pyrimisulfan, pyrimisulfan]?
A: ATR increased rate from the initial day of spraying (sugarcane [3]; [6]): 5.5%; Brix increased rate from the initial day of spraying (sugarcane [3]; [6]): 5.8%; Concentration of soluble solid matter, Brix (sugarcane [3]; [6]): 17.4%; Total sugar amount recoverable from 1 kg of stem, ATR (sugarcane [3]; [6]): 120.1 g; ATR increased rate from the initial day of spraying (sugarcane [3]; [7]): 9.5%; Brix increased rate from the initial day of spraying (sugarcane [3]; [7]): 7.6%; Concentration of soluble solid matter, Brix (sugarcane [3]; [7]): 17.7%; Total sugar amount recoverable from 1 kg of stem, ATR (sugarcane [3]; [7]): 124.6 g; ATR increased rate from the initial day of spraying (sugarcane [3]; [8]): 12.6%; Brix increased rate from the initial day of spraying (sugarcane [3]; [8]): 8.2%; Concentration of soluble solid matter, Brix (sugarcane [3]; [8]): 17.8%; Total sugar amount recoverable from 1 kg of stem, ATR (sugarcane [3]; [8]): 128.1 g

Q: What does the source list for `COC(=O)c1ccccc1S(=O)(=O)NC(=O)Nc1nc(C)cc(C)n1` [Sulfometuron-methyl, sulfometuron-methyl]?
A: ATR increased rate from the initial day of spraying (sugarcane [4]; after 30 days of spraying): 21.9%; Brix increased rate from the initial day of spraying (sugarcane [4]; after 30 days of spraying): 21.4%; Concentration of soluble solid matter, Brix (sugarcane [4]; after 30 days of spraying): 19.2%; PC increased rate from the initial day of spraying (sugarcane [4]; after 30 days of spraying): 24.3%; Sugar content in sugarcane, PC (sugarcane [4]; after 30 days of spraying): 13.9%; Total sugar amount recoverable from 1 kg of stem, ATR (sugarcane [4]; after 30 days of spraying): 138.1 g; ATR increased rate from the initial day of spraying (sugarcane [4]; after 45 days of spraying): 31.2%; Brix increased rate from the initial day of spraying (sugarcane [4]; after 45 days of spraying): 29.6%; Concentration of soluble solid matter, Brix (sugarcane [4]; after 45 days of spraying): 20.5%; PC increased rate from the initial day of spraying (sugarcane [4]; after 45 days of spraying): 35.1%; Sugar content in sugarcane, PC (sugarcane [4]; after 45 days of spraying): 15.1%; Total sugar amount recoverable from 1 kg of stem, ATR (sugarcane [4]; after 45 days of spraying): 148.7 g; ATR increased rate from the initial day of spraying (sugarcane [3]; [9]): 1.7%; Brix increased rate from the initial day of spraying (sugarcane [3]; [9]): 1.2%; Concentration of soluble solid matter, Brix (sugarcane [3]; [9]): 16.7%; Total sugar amount recoverable from 1 kg of stem, ATR (sugarcane [3]; [9]): 117.0 g; ATR increased rate from the initial day of spraying (sugarcane [3]; [10]): 8.1%; Brix increased rate from the initial day of spraying (sugarcane [3]; [10]): 6.4%; Concentration of soluble solid matter, Brix (sugarcane [3]; [10]): 17.6%; Total sugar amount recoverable from 1 kg of stem, ATR (sugarcane [3]; [10]): 124.5 g; ATR increased rate from the initial day of spraying (sugarcane [3]; [11]): −0.6%; Brix increased rate from the initial day of spraying (sugarcane [3]; [11]): −1.8%; Concentration of soluble solid matter, Brix (sugarcane [3]; [11]): 16.2%; Total sugar amount recoverable from 1 kg of stem, ATR (sugarcane [3]; [11]): 114.4 g; ATR increased rate from the initial day of spraying (sugarcane [2]; [9]): −3.2%; Brix increased rate from the initial day of spraying (sugarcane [2]; [9]): −5.4%; Concentration of soluble solid matter, Brix (sugarcane [2]; [9]): 16.5%; Total sugar amount recoverable from 1 kg of stem, ATR (sugarcane [2]; [9]): 120.1 g; ATR increased rate from the initial day of spraying (sugarcane [2]; [10]): 9.9%; Brix increased rate from the initial day of spraying (sugarcane [2]; [10]): 9.2%; Concentration of soluble solid matter, Brix (sugarcane [2]; [10]): 19.1%; Total sugar amount recoverable from 1 kg of stem, ATR (sugarcane [2]; [10]): 136.3 g; ATR increased rate from the initial day of spraying (sugarcane [2]; [11]): 19.0%; Brix increased rate from the initial day of spraying (sugarcane [2]; [11]): 17.2%; Concentration of soluble solid matter, Brix (sugarcane [2]; [11]): 20.5%; Total sugar amount recoverable from 1 kg of stem, ATR (sugarcane [2]; [11]): 147.6 g; ATR increased rate from the initial day of spraying (sugarcane [5]; [9]): 1.7%; Brix increased rate from the initial day of spraying (sugarcane [5]; [9]): 1.2%; Concentration of soluble solid matter, Brix (sugarcane [5]; [9]): 16.7%; Total sugar amount recoverable from 1 kg of stem, ATR (sugarcane [5]; [9]): 117.0 g; ATR increased rate from the initial day of spraying (sugarcane [5]; [10]): 8.1%; Brix increased rate from the initial day of spraying (sugarcane [5]; [10]): 6.4%; Concentration of soluble solid matter, Brix (sugarcane [5]; [10]): 17.6%; Total sugar amount recoverable from 1 kg of stem, ATR (sugarcane [5]; [10]): 124.5 g; ATR increased rate from the initial day of spraying (sugarcane [5]; [11]): −0.6%; Brix increased rate from the initial day of spraying (sugarcane [5]; [11]): −1.8%; Concentration of soluble solid matter, Brix (sugarcane [5]; [11]): 16.2%; Total sugar amount recoverable from 1 kg of stem, ATR (sugarcane [5]; [11]): 114.4 g

Q: For gibberellin, which “ATR increased rate from the initial day of spraying” value (shortened to “ATR increased rate”) (sugarcane [5]; [12]) is on record?
A: 5.3%

Q: What about the “Brix increased rate from the initial day of spraying” value (from here on “Brix increased rate”) (sugarcane [5]; [12]) of the same molecule?
A: 5.5%

Q: And the “Concentration of soluble solid matter, Brix” value (from here on “Concentration”) (sugarcane [5]; [12])?
A: 17.2%

Q: And the “Total sugar amount recoverable from 1 kg of stem, ATR” value (from here on “Total sugar amount recoverable”) (sugarcane [5]; [12])?
A: 120.5 g

Q: And the “ATR increased rate” value (sugarcane [5]; [13])?
A: 11.7%

Q: And the “Brix increased rate” value (sugarcane [5]; [13])?
A: 8.9%

Q: And the “Concentration” value (sugarcane [5]; [13])?
A: 17.8%

Q: What about the “Total sugar amount recoverable” value (sugarcane [5]; [13]) of the same molecule?
A: 127.9 g

Q: And the “ATR increased rate” value (sugarcane [5]; [14])?
A: 3.8%

Q: And the “Brix increased rate” value (sugarcane [5]; [14])?
A: 3.1%

Q: What about the “Concentration” value (sugarcane [5]; [14]) of the same molecule?
A: 16.8%

Q: What about the “Total sugar amount recoverable” value (sugarcane [5]; [14]) of the same molecule?
A: 118.8 g
